“And” between values parts separate entries of the source, which are not always exact repeats. Equal values may be shown once. Read-outs that look alike come from different tables or passages of the source.
What was measured:
KU812 cells = assay: MTT cell proliferation assay; format: cell-based; details: Homo sapiens, 48 h, mean ± SEM
From the text: (§1) Various types of hematological malignancies were selected for in vitro testing: the human acute myeloid leukemia (AML) cell line MV4-11, and the human chronic myeloid leukemia (CML) cell lines KU812 and K562. Indeed, Pim kinases are overexpressed in a wide range of hematopoietic malignancies. Solid tumors were also included in the panel of tested cell lines: MCF-7 (human breast adenocarcinoma), HT-29 (human colon adenocarcinoma), and HeLa (human cervical cancer) cells. Cytotoxic effects were evaluated using an MTT assay, and living cells were also counted with the trypan blue dye exclusion method for MV4-11, KU812, and K562 cells.
(§2) MV4-11, K562, and KU812 cell lines were obtained from the Deutshe Sammlung von Mikroorganismens und Zellkulturen (DSMZ) and maintained according to the supplier’s recommendations. All cell lines were cultured in RPMI, with 10% fetal bovine serum, 1% glutamine, and 1% penicillin/ streptomycin at 37 °C and 5% CO2.
(§3) MV4-11, K562, and KU812 cells’ viability was studied using a MTT cell proliferation assay.
(§4) MV4-11, K562, and KU812 cells were incubated with 10 μL of MTT working solution (5 g/L of methylthiazolyldiphenyl-tetrazolium bromide from Sigma Aldrich, Lyon, France) for 4 h. Cells were then lysed overnight at 37 °C with 100 μL of 10% SDS and 0.003% HCl. Optical density (OD) at 570 nm was measured using a spectrophotometer CLARIOstar® (BMG Labtech, Offenburg, Germany). Living cells were also counted with the trypan blue dye exclusion method. […] Data were collected from at least three independent experiments and the values reported are means ± standard errors of the mean (SEM).

K562 cells = assay: MTT cell proliferation assay; format: cell-based; details: Homo sapiens, 48 h, mean ± SEM
From the text: as §1, §2, §3, §4

HsPim-1 = molecular target: T1, HsPim-1 (Homo sapiens, UniProt P11309); assay: Kinase assay, luminescent ADP-Glo, 10 µM ATP; format: biochemical
T1 construct: made in house; host or cells: Escherichia coli BL21 DE3 pLysS
Method: (§5) The synthesized compounds were tested using a luminescence-based assay against a panel of nine kinases: Pim-1, Pim-2, CDK5/p25, CDK9/CyclinT, Haspin, CK1ε, and GSK3β (from human); DYRK1A (from Rattus norvegicus); and CLK1 (from Mus musculus).
(§6) Kinase enzymatic activities were assayed with 10 µM ATP in 384-well plates using the luminescent ADP-Glo^TM assay (Promega, Madison, WI, USA) according to the recommendations of the manufacturer (see [56] for details on this method). The transmitted signal was measured using the Envision (PerkinElmer, Waltham, MA, USA) microplate luminometer and expressed in relative light unit (RLU). In order to determine the half maximal inhibitory concentration (IC50), the assays were performed in duplicate in the absence or presence of increasing doses of the tested compounds. GraphPad Prism6 software (GraphPad Software, San Diego, CA, USA) was used to fit dose–response curves and to determine the IC50 values. Kinase activities are expressed in % of maximal activity, i.e., measured in the absence of inhibitor. Peptide substrates were obtained from Proteogenix (Schiltigheim, France).
(§7) For kinases expressed in bacteria, the Escherichia coli BL21 DE3 pLysS strain (Invitrogen, ThermoFisher Scientific, Waltham, MA, USA) was transformed with pGEX-2T-1 (Sigma-Aldrich, St. Louis, MO, USA) containing the coding region of the corresponding kinase. For kinases expressed in Sf9 insect cells, the coding region of the corresponding kinase was cloned in pFastBac^TM vector. Purification of the recombinant kinases was performed following the protocol “Bac-to-Bac® Baculovirus Expression System” provided by the manufacturer (Invitrogen, ThermoFisher Scientific, Waltham, MA, USA).
(§8) To validate the kinase assay, model inhibitors were used for each tested enzyme: Staurosporine from Streptomyces sp. (#S5921, purity ≥ 95%, Sigma-Aldrich) for HsCK1ε; Indirubin-30-oxime (#I0404, purity ≥ 98%, Sigma-Aldrich) for HsGSK-3β, HsPim-1 and 2, human cyclin-dependent kinases, RnDYRK1A and MmCLK1; CHR-6494 (#SML0648, purity ≥ 98%, Sigma-Aldrich) for Haspin.

HsPim-2 = molecular target: T2, HsPim-2 (Homo sapiens, UniProt Q9P1W9); assay: Kinase assay, luminescent ADP-Glo, 10 µM ATP; format: biochemical; details: mean of n ≥ 3, read-out: IC50 Pim-2
T2 construct: made in house; host or cells: Escherichia coli BL21 DE3 pLysS
Method: as §5, §6, §7, §8

MmCLK1 = molecular target: T3, MmCLK1 (Mus musculus, UniProt P22518); assay: Kinase assay, luminescent ADP-Glo, 10 µM ATP; format: biochemical; details: ADP-Glo, 10 µM ATP, duplicate; read-out: Kinase Enzymatic IC50 CLK1
T3 construct: made in house; host or cells: Escherichia coli BL21 DE3 pLysS
Method: as §5, §6, §7, §8

HsCDK5/p25 = molecular target: T4, HsCDK5/p25 (Homo sapiens, UniProt Q00535); assay: Kinase assay, luminescent ADP-Glo, 10 µM ATP; format: biochemical; details: duplicate, read-out: Kinase Enzymatic IC50 CDK5/p25
T4 construct: made in house; host or cells: Escherichia coli BL21 DE3 pLysS
Method: as §5, §6, §7, §8

HsCDK9/CyclinT = molecular target: T5, HsCDK9/CyclinT (Homo sapiens, UniProt P50750); assay: Kinase assay, luminescent ADP-Glo, 10 µM ATP; format: biochemical; details: duplicate, read-out: Kinase Enzymatic IC50 CDK9/CyclinT
T5 construct: made in house; host or cells: Sf9 insect cells (baculovirus, pFastBac)
Method: as §5, §6, §7, §8

HT-29 cells = assay: MTT cytotoxicity assay; format: cell-based; details: Homo sapiens, 72 h
From the text: as §1
(§9) The cancer cell lines MCF-7, HT-29, and HeLa were obtained from Cell Bank of Rio de Janeiro, Brazil, and were grown in RPMI-1640 medium and L929 cells were grown in Dulbecco’s Modified Eagle’s Medium (DMEM). Both media were supplemented with fetal bovine serum (FBS) (10% of the final concentration) followed by treatment with penicillin and streptomycin as antibiotics (1% of the final concentration). The crude was incubated in the presence of CO2 atmosphere (5%) for 24 h with the temperature monitored and maintained at 37 °C.
(§10) MCF-7, HT-29, HeLa, and L929 cells (3×10^5 cells/mL) were plated in 96-well plates and incubated in the presence of CO2 atmosphere (5%) for 24 h at 37 °C. […] Then, 25 μL of MTT (5 mg/mL in PBS) were added to each well and the plates were left for another 3 h in the incubator at 37 °C and at the end of this period, the supernatant was aspirated. To perform the reading, 100 μL of dimethylsulfoxide (DMSO) were added in each well for the dissolution of the formazan crystals. The amount of formazan was measured by reading the plate at 560 nm absorbance. […] Each sample was tested in triplicate in two independent experiments.

MCF-7 cells = assay: MTT cytotoxicity assay; format: cell-based; details: Homo sapiens, MCF7, 72 h
From the text: as §1, §9, §10

HeLa cells = assay: MTT cytotoxicity assay; format: cell-based; details: Homo sapiens, 72 h
From the text: as §1, §9, §10

MV4-11 cells = assay: MTT cell proliferation assay; format: cell-based, human; details: Homo sapiens, MV4-11, 48 h, mean ± SEM
From the text: as §1, §2, §3, §4

CaPkc1 = system: CaPkc1; set-up: method as in PMID 20865172; details: ATP-competitive; cited from earlier work
HsCK1ε = molecular target: T6, HsCK1ε (Homo sapiens, UniProt P49674); assay: Kinase assay, luminescent ADP-Glo, 10 µM ATP; format: biochemical; details: read-out: IC50 CK1
T6 construct: made in house; host or cells: Sf9 insect cells (baculovirus, pFastBac)
Method: as §5, §6, §7, §8

RnDYRK1A-kd = RnDYRK1A-kd (Rattus norvegicus, UniProt Q63470); assay: Kinase assay, luminescent ADP-Glo, 10 µM ATP; format: biochemical; details: read-out: IC50 DYRK1A
Method: as §5, §6, §7, §8

[1] = Table 1, ADP-Glo, 10 µM ATP, duplicate, read-out: Kinase Enzymatic IC50 Pim-1
[2] = Table 2, ADP-Glo, 10 µM ATP, mean of n ≥ 3, read-out: IC50 Pim-1

T1 sequence (P11309 whole entry): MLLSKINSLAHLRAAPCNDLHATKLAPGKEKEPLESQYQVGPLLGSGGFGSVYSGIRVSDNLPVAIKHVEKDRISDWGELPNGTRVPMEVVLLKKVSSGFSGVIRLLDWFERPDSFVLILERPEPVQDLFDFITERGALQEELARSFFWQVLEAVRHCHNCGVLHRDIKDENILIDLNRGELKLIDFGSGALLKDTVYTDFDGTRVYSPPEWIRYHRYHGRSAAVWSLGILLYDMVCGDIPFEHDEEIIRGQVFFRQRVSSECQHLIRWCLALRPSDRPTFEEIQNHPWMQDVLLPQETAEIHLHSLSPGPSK
T5 sequence (P50750 whole entry): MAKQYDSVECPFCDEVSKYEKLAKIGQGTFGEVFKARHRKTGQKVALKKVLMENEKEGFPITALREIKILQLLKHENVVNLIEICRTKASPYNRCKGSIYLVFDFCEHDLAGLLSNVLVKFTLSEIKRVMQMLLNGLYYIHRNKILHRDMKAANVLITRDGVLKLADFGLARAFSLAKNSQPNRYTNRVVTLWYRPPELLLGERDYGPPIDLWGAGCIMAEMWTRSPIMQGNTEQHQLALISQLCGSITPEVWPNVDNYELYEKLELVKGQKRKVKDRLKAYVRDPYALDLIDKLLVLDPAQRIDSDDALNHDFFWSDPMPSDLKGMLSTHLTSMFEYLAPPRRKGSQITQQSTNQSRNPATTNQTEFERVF
T5 sequence (O60563 whole entry partner): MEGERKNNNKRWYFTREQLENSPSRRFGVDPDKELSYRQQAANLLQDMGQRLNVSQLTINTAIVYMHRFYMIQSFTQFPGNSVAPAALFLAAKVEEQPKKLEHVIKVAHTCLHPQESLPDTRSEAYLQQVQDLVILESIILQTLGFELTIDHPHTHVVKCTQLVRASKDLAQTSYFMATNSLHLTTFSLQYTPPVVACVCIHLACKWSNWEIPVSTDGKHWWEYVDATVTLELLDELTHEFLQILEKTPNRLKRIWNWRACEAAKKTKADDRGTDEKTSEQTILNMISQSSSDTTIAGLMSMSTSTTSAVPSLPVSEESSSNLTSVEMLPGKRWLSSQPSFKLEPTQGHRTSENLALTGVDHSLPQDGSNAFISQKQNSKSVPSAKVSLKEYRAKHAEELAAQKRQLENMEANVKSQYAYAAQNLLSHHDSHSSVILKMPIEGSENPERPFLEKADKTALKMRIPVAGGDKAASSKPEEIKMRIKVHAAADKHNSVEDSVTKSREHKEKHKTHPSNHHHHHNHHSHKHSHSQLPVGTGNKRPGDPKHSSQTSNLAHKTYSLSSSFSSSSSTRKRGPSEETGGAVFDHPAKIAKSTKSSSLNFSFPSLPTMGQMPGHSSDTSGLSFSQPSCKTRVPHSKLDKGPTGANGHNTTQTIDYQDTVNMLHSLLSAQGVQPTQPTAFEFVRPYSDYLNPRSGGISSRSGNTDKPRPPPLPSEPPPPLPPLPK
T6 sequence (P49674 whole entry): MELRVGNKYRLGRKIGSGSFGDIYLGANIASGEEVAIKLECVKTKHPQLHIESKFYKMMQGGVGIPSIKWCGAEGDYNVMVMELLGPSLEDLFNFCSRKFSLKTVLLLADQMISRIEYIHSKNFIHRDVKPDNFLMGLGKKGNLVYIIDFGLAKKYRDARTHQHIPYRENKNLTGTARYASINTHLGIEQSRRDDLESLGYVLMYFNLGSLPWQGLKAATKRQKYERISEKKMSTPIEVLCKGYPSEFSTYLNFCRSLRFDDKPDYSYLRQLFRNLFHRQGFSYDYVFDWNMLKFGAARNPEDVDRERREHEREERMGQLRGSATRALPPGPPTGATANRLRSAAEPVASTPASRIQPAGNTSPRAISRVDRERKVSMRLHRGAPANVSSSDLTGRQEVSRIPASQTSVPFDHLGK
T4 sequence (Q00535 whole entry): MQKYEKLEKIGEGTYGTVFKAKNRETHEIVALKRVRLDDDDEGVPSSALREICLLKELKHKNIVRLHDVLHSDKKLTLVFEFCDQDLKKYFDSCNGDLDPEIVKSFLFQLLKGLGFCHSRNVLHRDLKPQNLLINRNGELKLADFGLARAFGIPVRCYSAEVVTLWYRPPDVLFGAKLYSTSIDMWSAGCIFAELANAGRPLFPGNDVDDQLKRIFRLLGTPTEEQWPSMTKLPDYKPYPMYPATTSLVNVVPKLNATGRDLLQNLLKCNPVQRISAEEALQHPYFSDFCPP
T4 sequence (Q15078 99-307 partner limits assumed): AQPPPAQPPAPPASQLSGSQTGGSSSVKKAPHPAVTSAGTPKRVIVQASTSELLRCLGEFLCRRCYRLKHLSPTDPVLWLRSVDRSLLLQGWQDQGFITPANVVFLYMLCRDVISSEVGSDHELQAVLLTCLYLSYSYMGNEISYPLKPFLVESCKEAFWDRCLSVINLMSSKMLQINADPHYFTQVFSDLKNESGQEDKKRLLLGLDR
T2 sequence (Q9P1W9 whole entry): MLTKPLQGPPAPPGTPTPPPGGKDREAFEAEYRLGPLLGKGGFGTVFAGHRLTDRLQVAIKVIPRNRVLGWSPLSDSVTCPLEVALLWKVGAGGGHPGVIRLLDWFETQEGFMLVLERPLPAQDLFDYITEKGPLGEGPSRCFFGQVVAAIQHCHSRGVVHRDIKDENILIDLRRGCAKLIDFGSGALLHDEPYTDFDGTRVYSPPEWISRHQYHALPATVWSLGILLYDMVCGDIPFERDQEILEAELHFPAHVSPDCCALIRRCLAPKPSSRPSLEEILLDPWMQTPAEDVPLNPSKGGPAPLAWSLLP
T3 sequence (P22518 whole entry): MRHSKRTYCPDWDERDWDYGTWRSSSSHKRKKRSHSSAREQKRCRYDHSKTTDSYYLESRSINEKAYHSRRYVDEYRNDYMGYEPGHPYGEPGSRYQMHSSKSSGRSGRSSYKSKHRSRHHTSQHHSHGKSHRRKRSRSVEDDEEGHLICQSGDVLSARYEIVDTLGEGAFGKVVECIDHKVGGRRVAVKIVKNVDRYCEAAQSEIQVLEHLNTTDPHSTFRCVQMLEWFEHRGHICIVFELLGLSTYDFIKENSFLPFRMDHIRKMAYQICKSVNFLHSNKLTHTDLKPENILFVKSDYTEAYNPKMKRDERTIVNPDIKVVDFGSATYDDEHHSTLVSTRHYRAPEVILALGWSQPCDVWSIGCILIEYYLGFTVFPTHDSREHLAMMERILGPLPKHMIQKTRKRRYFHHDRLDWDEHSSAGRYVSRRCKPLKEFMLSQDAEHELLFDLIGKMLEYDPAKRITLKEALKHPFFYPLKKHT

| SMILES | IC50 (KU812 cells) | IC50 (K562 cells) | IC50 (HsPim-1; [1]) | IC50 (HsPim-1; [2]) | IC50 (HsPim-1; printed in Figure 1, no reference given, read-out: Pim-1 IC50 (Figure 1)) | IC50 (HsPim-2) | IC50 (MmCLK1) | IC50 (HsCDK5/p25) | IC50 (HsCDK9/CyclinT) | IC50 (HT-29 cells) | IC50 (MCF-7 cells) | IC50 (HeLa cells) | IC50 (MV4-11 cells) | IC50 (CaPkc1) | IC50 (HsCK1ε) | IC50 (RnDYRK1A-kd) | melting point |
| --- | --- | --- | --- | --- | --- | --- | --- | --- | --- | --- | --- | --- | --- | --- | --- | --- | --- |
| CC(=O)C1=C(O)C=C2Oc3c(C(N)=O)c(O)cc(O)c3[C@]2(C)C1=O [Cerco, Cercosporamide] | > 100000 nM | > 100000 nM | 730 nM | 730 nM | 732 nM | 1430 nM | > 10000 nM | 5600 nM | 220 nM | 10400 nM | 44300 ± 2100 nM | 7500 ± 3100 nM | 31500 ± 4700 nM | 44 nM |  |  |  |
| NC(=O)c1c(O)cc(O)c2c1oc1ccc(F)cc12 [Compound 46, 8-Fluoro-1,3-dihydroxydibenzo[b,d]furan-4-carboxamide] | > 100000 nM | > 100000 nM | > 1000 nM and 1200 nM | 1200 nM |  |  |  |  | 920 nM |  |  |  | 16100 ± 1600 nM |  | 680 nM | 690 nM | 342 to 343 °C |
